According to patent publication US20210386792A1, “A METHOD FOR INCREASING POPULATION OF SPERMATOGONIAL STEM CELLS” (priority 2018, published 2021):

Tested on: Thy1.2+GFP+ SSCs
Assay: Colony formation of GFP+ SSCs co-cultured with TECs with added growth factors
Format: cell-based, mouse
Details: Thy1.2+GFP+ cells co-cultured with TECs, factors added to growth media
Procedure: 2D co-cultures were generated by plating 2.7×10^5 cultured GFP^+ SSCs on STO feeder cells 28 or on top of 200 μl of solid matrigel mixture containing TEC (BD bioscience) in serum free medium 28 with exogenous GDNF 10 ng ml^−1 (R&D system), GFR^+ 75 ng ml^−1 (R&D system) and FGF2 1 ng ml^−1 (BD Biosciences). Average GFP^+ SSC colony area was measured and GFP^+ SSC cell number were counted 8 days after plating. Each condition was performed in triplicate.
FIG. 4. a. Quantication of GDNF levels by ELISA in conditioned media from TECs isolated from Fgfr1+/+ or Fgfr1−/− mice. Bar=1 cm. b. Images of testes from busulfan-treated (45 mgkg-1) WT mice 12 weeks post transplantation with PBS(Φ), Fgfr1+/+ TECs or Fgfr1/−/− TECs. Testis weights are indicated on the right (n=4). c. H&E images of testis sections from control (Fgfr1+/+) or endothelialspecic deletion of Fgfr1 (Fgfr1iΔEC/iΔEC) mice at 12 weeks after tamoxifen treatment to induce fgfr1 deletion from ECs. Red stars indicate empty seminiferous tubule. Bar=100 μm. d. Representative bright-eld and GFP images of GFP+ SSCs co-cultured with TECs with the addition of FGF±GDNF at the indicated concentrations after 4 weeks. SSC colony number and size over time are shown on right. e. Immunouorescence images of testis sections from Fgfr1+/+ or Fgfr1iΔEC/iΔEC mice 5 weeks after busulfan treatment at the indicated concentrations. […]

fibroblast growth factor-2 [FGF-2]
SSC colony formation (number and size of colonies): sufficient for SSC maintenance and expansion
